Tests used:
[1] = biological target: C-C chemokine receptor type 5 (Homo sapiens, UniProt P51681); experiment: Antagonist activity at CCR5 (unknown origin) expressed in HEK293 cells co-expressing Galpha16 assessed as inhibition of RANTES-induced calcium flux preincubated for 10 mins followed by RANTES addition by fluo-4AM-based fluorescence assay; assay type: functional, cell-based
[2] = system: Human immunodeficiency virus 1; experiment: microbe, parasite or virus in culture; conditions: Human immunodeficiency virus 1, SF162, TZM-bl, 48 h
Description: Antiviral activity against CCR5-dependent HIV1 SF162 infected in human TZM-bl cells assessed as reduction in virus infection measured after 48 hrs post infection by luciferase reporter gene assay

[3] = Cytotoxicity against human TZM-bl cells after 48 hrs by MTT assay; assay type: cell-based
[4] = in vitro; conditions: human, TZM-bl cells
Description: Therapeutic index, ratio of CC50 for human TZM-bl cells to EC50 for CCR5-dependent HIV1 SF162 infected in human TZM-bl cells

[5] = Clearance in Sprague-Dawley rat at 10 mg/kg, iv by LC-MS/MS analysis; assay type: ADME, organism-based; conditions: in vivo
[6] = system: Human immunodeficiency virus 1; experiment: microbe, parasite or virus in culture; conditions: Human immunodeficiency virus 1, KM018, PBMC, 168 h
Description: Antiviral activity against CCR5-dependent HIV1 KM018 infected in human PBMC assessed as reduction in virus infection measured after 7 days by luciferase reporter gene assay

[7] = in vitro; conditions: human, HOS cells
Description: Therapeutic index, ratio of CC50 for human HOS cells to IC50 for CCR5-dependent HIV1 SF162 infected in human HOS cells

[8] = biological target: Cytochrome P450 2D6 (Homo sapiens, UniProt P10635); experiment: Inhibition of CYP2D6 (unknown origin); assay type: ADME
Chain of Cytochrome P450 2D6 (P10635 whole entry): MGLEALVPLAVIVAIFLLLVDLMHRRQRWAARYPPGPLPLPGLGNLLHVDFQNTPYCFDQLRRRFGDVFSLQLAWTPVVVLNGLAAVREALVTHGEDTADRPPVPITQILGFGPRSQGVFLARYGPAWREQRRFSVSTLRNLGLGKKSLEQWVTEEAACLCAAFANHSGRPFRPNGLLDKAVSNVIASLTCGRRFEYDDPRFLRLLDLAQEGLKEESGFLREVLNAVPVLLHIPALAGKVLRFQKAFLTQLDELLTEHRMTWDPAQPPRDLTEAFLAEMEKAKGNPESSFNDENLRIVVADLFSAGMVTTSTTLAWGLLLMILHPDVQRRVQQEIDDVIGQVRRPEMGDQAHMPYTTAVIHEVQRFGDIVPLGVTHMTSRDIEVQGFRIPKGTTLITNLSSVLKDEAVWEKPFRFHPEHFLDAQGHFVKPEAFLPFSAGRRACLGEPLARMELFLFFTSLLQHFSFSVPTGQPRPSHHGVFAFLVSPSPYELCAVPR

[9] = system: Human immunodeficiency virus 1; experiment: microbe, parasite or virus in culture; conditions: Human immunodeficiency virus 1, Ba-L, PBMC, 168 h
Description: Antiviral activity against CCR5-dependent HIV1 Ba-L infected in human PBMC assessed as reduction in virus infection measured 7 days by luciferase reporter gene assay

[10] = system: Human immunodeficiency virus 1; experiment: microbe, parasite or virus in culture; conditions: Human immunodeficiency virus 1, Ba-L, HOS, 120 h
Description: Antiviral activity against CCR5-dependent HIV1 Ba-L infected in human HOS cells assessed as reduction in virus infection measured after 5 days by luciferase reporter gene assay

[11] = in vitro; conditions: human, PBMC
Description: Therapeutic index, ratio of CC50 for human PBMC to IC50 for CCR5-dependent HIV1 KM018 infected in human PBMC

[12] = system: Human immunodeficiency virus 1; experiment: microbe, parasite or virus in culture; conditions: Human immunodeficiency virus 1, SF162, PBMC, 168 h
Description: Antiviral activity against CCR5-dependent HIV1 SF162 infected in human PBMC assessed as reduction in virus infection measured after 7 days by luciferase reporter gene assay

[13] = Tmax in Sprague-Dawley rat at 20 mg/kg, po by LC-MS/MS analysis; assay type: ADME, organism-based; conditions: in vivo
[14] = in vitro; conditions: human, PM1 cells
Description: Therapeutic index, ratio of CC50 for human PM1 cells to IC50 for CCR5-dependent HIV1 Ba-L infected in human PM1 cells

[15] = Cmax in Sprague-Dawley rat at 10 mg/kg, iv by LC-MS/MS analysis; assay type: ADME, organism-based; set-up: dose 10 mg/kg, route intravenous; conditions: in vivo
[16] = biological target: Cytochrome P450 2C9 (Homo sapiens, UniProt P11712); experiment: Inhibition of CYP2C9 (unknown origin); assay type: ADME
Chain of Cytochrome P450 2C9 (P11712 whole entry): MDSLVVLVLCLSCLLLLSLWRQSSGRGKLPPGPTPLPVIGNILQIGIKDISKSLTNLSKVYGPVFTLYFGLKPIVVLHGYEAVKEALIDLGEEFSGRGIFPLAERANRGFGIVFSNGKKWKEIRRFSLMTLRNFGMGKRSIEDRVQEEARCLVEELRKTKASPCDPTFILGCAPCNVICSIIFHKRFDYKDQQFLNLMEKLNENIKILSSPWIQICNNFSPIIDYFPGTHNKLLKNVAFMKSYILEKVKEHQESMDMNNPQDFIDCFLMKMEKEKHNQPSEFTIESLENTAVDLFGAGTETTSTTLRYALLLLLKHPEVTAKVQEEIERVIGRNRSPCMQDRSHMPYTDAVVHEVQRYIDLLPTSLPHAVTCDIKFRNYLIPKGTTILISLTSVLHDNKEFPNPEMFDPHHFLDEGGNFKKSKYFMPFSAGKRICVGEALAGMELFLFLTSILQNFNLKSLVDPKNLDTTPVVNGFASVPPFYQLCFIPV

[17] = biological target: T1, Cytochrome P450 3A4 (Homo sapiens, UniProt P08684); experiment: Inhibition of CYP3A4 (unknown origin) using midazolam as substrate; assay type: ADME
T1 sequence (P08684 whole entry): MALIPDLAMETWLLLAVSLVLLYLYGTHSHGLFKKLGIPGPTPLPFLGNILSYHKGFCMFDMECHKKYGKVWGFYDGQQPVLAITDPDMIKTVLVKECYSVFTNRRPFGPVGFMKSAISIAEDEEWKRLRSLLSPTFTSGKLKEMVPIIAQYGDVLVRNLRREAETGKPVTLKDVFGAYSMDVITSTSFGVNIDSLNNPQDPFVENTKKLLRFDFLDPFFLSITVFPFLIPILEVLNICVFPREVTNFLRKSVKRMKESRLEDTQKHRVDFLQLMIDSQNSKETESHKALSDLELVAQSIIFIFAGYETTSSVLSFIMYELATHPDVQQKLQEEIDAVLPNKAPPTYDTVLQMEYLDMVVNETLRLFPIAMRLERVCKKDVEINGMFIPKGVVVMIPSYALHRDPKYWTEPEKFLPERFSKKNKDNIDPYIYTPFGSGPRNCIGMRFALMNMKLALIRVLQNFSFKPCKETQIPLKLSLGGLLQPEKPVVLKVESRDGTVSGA

[18] = Half life in Sprague-Dawley rat at 20 mg/kg, po by LC-MS/MS analysis; assay type: ADME, organism-based; conditions: in vivo
[19] = Half life in Sprague-Dawley rat at 10 mg/kg, iv by LC-MS/MS analysis; assay type: ADME, organism-based; conditions: in vivo
[20] = system: Human immunodeficiency virus 1; experiment: microbe, parasite or virus in culture; conditions: Human immunodeficiency virus 1, SF162, HOS, 120 h
Description: Antiviral activity against CCR5-dependent HIV1 SF162 infected in human HOS cells assessed as reduction in virus infection measured after 5 days by luciferase reporter gene assay

[21] = biological target: T1, Cytochrome P450 3A4; experiment: Inhibition of CYP3A4 (unknown origin) using testosterone as substrate; assay type: ADME
[22] = in vitro; conditions: human, PBMC; remark: listed apart in the source
Description: Therapeutic index, ratio of CC50 for human PBMC to IC50 for CCR5-dependent HIV1 SF162 infected in human PBMC cells

[23] = biological target: Cytochrome P450 2C19 (Homo sapiens, UniProt P33261); experiment: Inhibition of CYP2C19 (unknown origin); assay type: ADME
Chain of Cytochrome P450 2C19 (P33261 whole entry): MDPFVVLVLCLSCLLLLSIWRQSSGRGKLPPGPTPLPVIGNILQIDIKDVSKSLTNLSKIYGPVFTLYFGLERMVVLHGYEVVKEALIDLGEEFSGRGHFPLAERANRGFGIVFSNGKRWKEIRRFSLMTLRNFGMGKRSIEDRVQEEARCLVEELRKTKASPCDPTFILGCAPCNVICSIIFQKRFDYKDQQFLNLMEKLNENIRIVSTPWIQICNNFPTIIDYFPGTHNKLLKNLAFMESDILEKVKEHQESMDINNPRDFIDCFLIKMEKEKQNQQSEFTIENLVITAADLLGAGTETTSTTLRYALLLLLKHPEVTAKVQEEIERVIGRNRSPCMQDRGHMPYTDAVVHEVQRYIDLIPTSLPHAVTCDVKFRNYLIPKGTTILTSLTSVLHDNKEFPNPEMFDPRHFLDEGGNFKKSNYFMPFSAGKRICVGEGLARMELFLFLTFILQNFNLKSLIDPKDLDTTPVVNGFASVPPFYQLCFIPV

[24] = MRT in Sprague-Dawley rat at 20 mg/kg, po by LC-MS/MS analysis; assay type: ADME, organism-based; conditions: in vivo
[25] = biological target: T2, Cytochrome P450 1A2 (Homo sapiens, UniProt P05177); experiment: Inhibition of CYP1A2 (unknown origin); assay type: ADME
T2 sequence (P05177 whole entry): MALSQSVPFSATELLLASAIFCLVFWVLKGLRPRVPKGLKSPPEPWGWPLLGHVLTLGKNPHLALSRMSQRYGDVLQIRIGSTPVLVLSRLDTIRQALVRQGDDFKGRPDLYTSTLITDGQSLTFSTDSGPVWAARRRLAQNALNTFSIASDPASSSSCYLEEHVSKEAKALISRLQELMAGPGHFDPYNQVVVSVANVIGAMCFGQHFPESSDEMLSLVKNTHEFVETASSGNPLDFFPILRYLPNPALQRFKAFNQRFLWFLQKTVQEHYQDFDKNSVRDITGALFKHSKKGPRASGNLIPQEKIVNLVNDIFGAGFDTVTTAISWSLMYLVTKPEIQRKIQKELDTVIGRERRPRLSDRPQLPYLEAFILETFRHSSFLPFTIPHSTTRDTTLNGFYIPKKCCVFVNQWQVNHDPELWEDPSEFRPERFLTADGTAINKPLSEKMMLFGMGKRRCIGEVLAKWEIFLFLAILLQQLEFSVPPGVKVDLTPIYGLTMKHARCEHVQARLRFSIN

[26] = Oral bioavailability in Sprague-Dawley rat at 20 mg/kg by LC-MS/MS analysis; assay type: ADME, organism-based; conditions: in vivo
[27] = AUC (0 to infinity) in Sprague-Dawley rat at 10 mg/kg, iv by LC-MS/MS analysis; assay type: ADME, organism-based; set-up: dose 10 mg/kg, time infinity, route intravenous; conditions: in vivo
[28] = Cmax in Sprague-Dawley rat at 20 mg/kg, po by LC-MS/MS analysis; assay type: ADME, organism-based; set-up: dose 20 mg/kg, route oral; conditions: in vivo
[29] = biological target: Voltage-gated inwardly rectifying potassium channel KCNH2 (Homo sapiens, UniProt Q12809); experiment: Inhibition of human ERG expressed in CHO cells at holding potential of -80 mV after 60 secs by patch clamp assay; assay type: cell-based
Chain of Voltage-gated inwardly rectifying potassium channel KCNH2 (Q12809 whole entry): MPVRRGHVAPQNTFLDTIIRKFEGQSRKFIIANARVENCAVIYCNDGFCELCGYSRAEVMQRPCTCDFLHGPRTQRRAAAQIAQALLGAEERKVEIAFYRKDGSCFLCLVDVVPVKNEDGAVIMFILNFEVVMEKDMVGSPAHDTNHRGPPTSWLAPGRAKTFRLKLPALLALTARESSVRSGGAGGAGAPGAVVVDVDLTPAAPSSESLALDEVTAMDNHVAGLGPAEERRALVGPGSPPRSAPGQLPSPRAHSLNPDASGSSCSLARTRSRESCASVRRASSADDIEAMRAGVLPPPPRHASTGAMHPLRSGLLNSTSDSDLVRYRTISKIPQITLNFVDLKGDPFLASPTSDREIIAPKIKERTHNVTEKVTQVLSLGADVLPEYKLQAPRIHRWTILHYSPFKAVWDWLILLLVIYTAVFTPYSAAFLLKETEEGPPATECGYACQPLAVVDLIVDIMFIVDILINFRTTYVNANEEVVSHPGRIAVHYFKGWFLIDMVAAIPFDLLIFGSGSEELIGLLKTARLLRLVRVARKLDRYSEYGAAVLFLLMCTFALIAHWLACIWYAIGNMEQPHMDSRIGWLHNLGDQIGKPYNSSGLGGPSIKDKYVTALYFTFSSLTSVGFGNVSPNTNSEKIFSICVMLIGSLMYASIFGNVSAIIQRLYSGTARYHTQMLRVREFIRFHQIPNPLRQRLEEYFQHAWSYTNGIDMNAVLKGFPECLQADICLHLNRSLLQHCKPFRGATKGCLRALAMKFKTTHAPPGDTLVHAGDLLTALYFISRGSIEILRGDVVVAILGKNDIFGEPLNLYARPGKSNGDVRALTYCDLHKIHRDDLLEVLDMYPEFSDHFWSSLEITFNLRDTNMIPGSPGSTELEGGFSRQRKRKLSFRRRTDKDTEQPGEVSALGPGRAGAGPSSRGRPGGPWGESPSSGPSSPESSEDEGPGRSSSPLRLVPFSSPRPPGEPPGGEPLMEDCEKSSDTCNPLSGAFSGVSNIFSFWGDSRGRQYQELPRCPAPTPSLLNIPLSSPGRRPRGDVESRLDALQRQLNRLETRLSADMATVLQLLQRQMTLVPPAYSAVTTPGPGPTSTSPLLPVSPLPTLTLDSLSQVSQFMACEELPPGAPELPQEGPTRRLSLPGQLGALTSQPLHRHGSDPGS

[30] = MRT in Sprague-Dawley rat at 10 mg/kg, iv by LC-MS/MS analysis; assay type: ADME, organism-based; conditions: in vivo
[31] = in vitro; conditions: human, PBMC; remark: listed apart in the source
Description: Therapeutic index, ratio of CC50 for human PBMC to IC50 for CCR5-dependent HIV1 Ba-L infected in human PBMC

[32] = in vitro; conditions: human, HOS cells; remark: listed apart in the source
Description: Therapeutic index, ratio of CC50 for human HOS cells to IC50 for CCR5-dependent HIV1 Ba-L infected in human HOS cells

[33] = AUC (0 to infinity) in Sprague-Dawley rat at 20 mg/kg, po by LC-MS/MS analysis; assay type: ADME, organism-based; set-up: dose 20 mg/kg, route oral, time infinity; conditions: in vivo
[34] = system: Human immunodeficiency virus 1; experiment: microbe, parasite or virus in culture; conditions: Human immunodeficiency virus 1, Ba-L, PM1, 120 h
Description: Antiviral activity against CCR5-dependent HIV1 Ba-L infected in human PM1 cells assessed as reduction in virus infection measured after 5 days by luciferase reporter gene assay

[35] = Tmax in Sprague-Dawley rat at 10 mg/kg, iv by LC-MS/MS analysis; assay type: ADME, organism-based; conditions: in vivo

Chain of C-C chemokine receptor type 5 (P51681 whole entry): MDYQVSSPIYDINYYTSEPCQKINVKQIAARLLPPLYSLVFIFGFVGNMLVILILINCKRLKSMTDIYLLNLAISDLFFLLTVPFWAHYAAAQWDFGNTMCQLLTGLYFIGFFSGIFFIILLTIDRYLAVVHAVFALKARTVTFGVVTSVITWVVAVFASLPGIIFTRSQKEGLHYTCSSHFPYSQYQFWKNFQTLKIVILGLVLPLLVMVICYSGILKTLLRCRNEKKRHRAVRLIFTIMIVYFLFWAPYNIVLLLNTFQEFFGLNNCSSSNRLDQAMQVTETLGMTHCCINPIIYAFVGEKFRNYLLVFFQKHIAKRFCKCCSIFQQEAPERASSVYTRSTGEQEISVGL

Cc1nnc(C(C)C)n1[C@@H]1C[C@H]2CC[C@@H](C1)N2CC[C@H](NC(=O)C1CCC(F)(F)CC1)c1ccc(Cl)s1
IC50 [1]: 12 nM

O=C(N[C@@H](CCN1[C@@H]2CC[C@H]1C[C@H](n1c(C3CC3)nnc1C(F)(F)F)C2)c1ccsc1)C1CCC(F)(F)CC1
IC50 [1]: 2.9 nM

Cc1nnc(C(C)C)n1[C@@H]1C[C@H]2CC[C@@H](C1)N2CC[C@H](NC(=O)C1CC(F)(F)C1)c1cccs1
IC50 [1]: 2.6 nM

Cc1ccc([C@H](CCN2[C@@H]3CC[C@H]2C[C@H](n2c(C)nnc2C(C)C)C3)NC(=O)C2CCCC2)s1
IC50 [1]: 2.6 nM

Cc1nnc(C2CC2)n1[C@@H]1C[C@H]2CC[C@@H](C1)N2CC[C@H](NC(=O)C1CCC(F)(F)CC1)c1cccs1
IC50 [1]: 2.9 nM

Cc1nnc(C(C)C)n1[C@@H]1C[C@H]2CC[C@@H](C1)N2CC[C@H](NC(=O)C1CCC(F)(F)CC1)c1cscn1
IC50 [1]: 27.1 nM

Cc1nnc(C(C)C)n1[C@@H]1C[C@H]2CC[C@@H](C1)N2CC[C@H](NC(=O)C1CCC(F)(F)CC1)c1ccc(F)s1
IC50 [2]: 520 nM | CC50 at 48 h [3]: > 200000 nM | selectivity ratio [4]: > 385 | IC50 [1]: 15.8 nM

Cc1nnc(C(C)C)n1[C@@H]1C[C@H]2CC[C@@H](C1)N2CC[C@H](NC(=O)C1CC(=O)N(C)C1)c1cccs1 (some centres undefined)
IC50 [1]: 5.2 nM

Cc1csc([C@H](CCN2[C@@H]3CC[C@H]2C[C@H](n2c(C)nnc2C(C)C)C3)NC(=O)C2CCC(F)(F)CC2)c1
IC50 [1]: 6.8 nM

Cc1nnc(C(C)C)n1[C@@H]1C[C@H]2CC[C@@H](C1)N2CC[C@H](NC(=O)C1CCC(F)(F)CC1)c1cccs1
clearance [5]: 23.7 mL/min/kg | IC50 [6]: 4.8 nM | selectivity ratio [7]: 28000 | IC50 [8]: > 25000 nM | IC50 [9]: 28.5 nM | IC50 [10]: 3.6 nM | selectivity ratio [11]: 56000 | IC50 [12]: 2.9 nM | Tmax [13]: 4 h | IC50 [2]: 3.6 nM | selectivity ratio [14]: 99000 | Cmax [15]: 6840 ng/mL | IC50 [16]: > 25000 nM | IC50 [17]: > 25000 nM | half-life [18]: 2.1 h | half-life [19]: 0.77 h | IC50 [20]: 13.1 nM | CC50 at 48 h [3]: > 200000 nM | IC50 [21]: > 25000 nM | selectivity ratio [22]: 92000 | IC50 [23]: > 25000 nM | MRT [24]: 3.3 h | IC50 [25]: > 25000 nM | selectivity ratio [4]: > 55000 | bioavailability [26]: 7.8% | IC50 [1]: 9.1 nM | AUC(0-inf) [27]: 7050 ng·h/mL | Cmax [28]: 266 ng/mL | IC50 [29]: 3500 nM | MRT [30]: 0.7 h | selectivity ratio [31]: 9400 | selectivity ratio [32]: 100000 | AUC(0-inf) [33]: 1110 ng·h/mL | IC50 [34]: 6.2 nM | Tmax [35]: 0.25 h

Cc1ccc([C@H](CCN2[C@@H]3CC[C@H]2C[C@H](n2c(C(C)C)nnc2C(F)(F)F)C3)NC(=O)C2CCC(F)(F)CC2)s1
IC50 [1]: 4 nM

Cc1nnc(C(C)C)n1[C@@H]1C[C@H]2CC[C@@H](C1)N2CC[C@H](NC(=O)C(C)(C)C(F)(F)F)c1cccs1
IC50 [1]: 5.4 nM

Cc1nnc(C(C)C)n1[C@@H]1C[C@H]2CC[C@@H](C1)N2CC[C@H](NC(=O)C1CCC(F)(F)CC1)c1csc2ccccc12
IC50 [2]: 810 nM | CC50 at 48 h [3]: 96100 nM | selectivity ratio [4]: 119 | IC50 [1]: 9.7 nM

CC(C)c1nnc(C(F)(F)F)n1[C@@H]1C[C@H]2CC[C@@H](C1)N2CC[C@H](NC(=O)C1CCC(F)(F)CC1)c1cccs1
IC50 [1]: 4.7 nM

Cc1nnc(C2CC2)n1[C@@H]1C[C@H]2CC[C@@H](C1)N2CC[C@H](NC(=O)C1CCC(F)(F)CC1)c1ccsc1
IC50 [1]: 2.6 nM

Cc1ccc([C@H](CCN2[C@@H]3CC[C@H]2C[C@H](n2c(C)nnc2C(C)C)C3)NC(=O)Cc2ccc(F)cc2)s1
IC50 [1]: 33 nM

Cc1nnc(C(C)C)n1[C@@H]1C[C@H]2CC[C@@H](C1)N2CC[C@H](NC(=O)C1CCC(F)(F)CC1)c1ccc(F)nc1
IC50 [1]: 252 nM

Cc1nnc(C(C)C)n1[C@@H]1C[C@H]2CC[C@@H](C1)N2CC[C@H](NC(=O)C1CCC(F)(F)CC1)c1cccnc1
IC50 [2]: 1520 nM | CC50 at 48 h [3]: > 100000 nM | selectivity ratio [4]: > 65.8 | IC50 [1]: 82.6 nM

Cc1cscc1[C@H](CCN1[C@@H]2CC[C@H]1C[C@H](n1c(C)nnc1C(C)C)C2)NC(=O)C1CCC(F)(F)CC1
IC50 [1]: 8.1 nM

Cc1nnc(C(C)C)n1[C@@H]1C[C@H]2CC[C@@H](C1)N2CC[C@H](NC(=O)C1CCC(F)CC1)c1cccs1 (some centres undefined)
IC50 [1]: 3 nM

Cc1nnc(C(C)C)n1[C@@H]1C[C@H]2CC[C@@H](C1)N2CC[C@H](NC(=O)[C@@H]1CCC(=O)N1)c1cccs1
IC50 [1]: 20.6 nM

Cc1nnc(C(C)C)n1[C@@H]1C[C@H]2CC[C@@H](C1)N2CC[C@H](NC(=O)C1CCC(F)(F)C1)c1cccs1 (some centres undefined)
IC50 [1]: 2.3 nM

CCc1nnc(C)n1[C@@H]1C[C@H]2CC[C@@H](C1)N2CC[C@H](NC(=O)C1CCC(F)(F)CC1)c1ccsc1
IC50 [1]: 2.8 nM

Cc1nnc(C(C)C)n1[C@@H]1C[C@H]2CC[C@@H](C1)N2CC[C@H](NC(=O)C1CCC(=O)C1)c1cccs1 (some centres undefined)
IC50 [1]: 2.9 nM

Cc1ccc([C@H](CCN2[C@@H]3CC[C@H]2C[C@H](n2c(C)nnc2C(C)C)C3)NC(=O)c2ccccc2)s1
IC50 [1]: 51.7 nM

COc1ccc([C@H](CCN2[C@@H]3CC[C@H]2C[C@H](n2c(C)nnc2C(C)C)C3)NC(=O)C2CCC(F)(F)CC2)s1
IC50 [1]: 6.8 nM

From ChEMBL document CHEMBL4229569, “Structure-Based Design of 1-Heteroaryl-1,3-propanediamine Derivatives as a Novel Series of CC-Chemokine Receptor 5 Antagonists” (J Med Chem, 2018)
